Article PMC5429603, “Discovery and characterization of verinurad, a potent and specific inhibitor of URAT1 for the treatment of hyperuricemia and gout” (Scientific Reports, 2017)
Changes are numbered by the printed parent chain. Read-outs that look alike come from different tables or passages of the source.

Legend:
human URAT1 h-F241Y = biological target: T1, human URAT1 h-F241Y (Homo sapiens, UniProt Q96S37, F241Y); assay: URAT1 activity assay, h-F241Y; assay type: cell-based
T1 construct: expressed in transfected cells; host or cells: HEK-293T
T1 sequence (Q96S37 1-553 F241Y): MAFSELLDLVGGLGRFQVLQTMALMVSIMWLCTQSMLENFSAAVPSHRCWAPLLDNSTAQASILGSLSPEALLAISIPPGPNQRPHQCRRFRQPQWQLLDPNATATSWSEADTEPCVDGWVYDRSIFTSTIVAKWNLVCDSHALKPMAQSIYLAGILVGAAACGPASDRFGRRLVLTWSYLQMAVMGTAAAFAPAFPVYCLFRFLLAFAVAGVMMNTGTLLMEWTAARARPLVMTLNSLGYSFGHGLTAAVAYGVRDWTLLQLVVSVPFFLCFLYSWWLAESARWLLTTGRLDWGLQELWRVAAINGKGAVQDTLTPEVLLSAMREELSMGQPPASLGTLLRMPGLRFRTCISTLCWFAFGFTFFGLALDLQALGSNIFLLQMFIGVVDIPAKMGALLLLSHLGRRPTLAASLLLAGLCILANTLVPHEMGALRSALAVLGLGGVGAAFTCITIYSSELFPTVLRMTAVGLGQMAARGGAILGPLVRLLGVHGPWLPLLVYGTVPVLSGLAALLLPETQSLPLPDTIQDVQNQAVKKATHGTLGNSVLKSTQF
Description: Human URAT1 (GenBank BC053348.1, Homo sapiens SLC22A12), rat URAT1 (NCBI NM_001034943.1, Rattus norvegicus Slc22a12) and human OAT4 (NCBI NM_018484.2, Homo sapiens SLC22A11) genes were purchased from Origene Technologies, Inc. and subcloned into pCMV6/neo using NotI. Where indicated, controls transfections used pCMV6/neo. Mutants were produced by site-directed mutagenesis using the QuikChange Lightning Multi Site-Directed Mutagenesis Kit (Agilent Technologies). […] Mutagenic primer sequences are provided in ref. [15] and mutagenic primer sequences for previously unreported mutants shown in Supplementary Table 1. All constructs used in this study were untagged. Human OAT1 was purchased from Fisher Scientific (catalog # MHS1010–7508183 in pSPORT6, NCBI NM_153276.2, Homo sapiens SLC22A6).
(§1) HEK-293T cells were maintained in DMEM/high glucose/L-glutamine/HEPES supplemented with 1 mM sodium pyruvate (Life Technologies) and 10% FBS (PAA Laboratories) at 37 °C in 5% CO2. To express URAT1, OAT4 or OAT1, plasmids were reverse transfected into HEK-293T cells. DNA (10 µg) was mixed with 30 µl of DreamFect Gold (Boca Scientific) in 2 ml OptiMem (Life Technologies). After 20 minutes, 18 ml of media containing 2 × 10^7 cells in suspension was added and mixed, and 200 µl per well were plated onto white clear-bottomed poly-D-lysine coated 96-well plates (BD Biosciences). The cells were assayed the following day.
(§2) URAT1 and OAT4 activity assays were performed in assay buffer consisting of 25 mM MES pH 5.5 (from a 1 M MES solution [Sigma] adjusted to pH 5.5 with sodium hydroxide), 125 mM sodium gluconate, 4.8 mM potassium gluconate, 1.2 mM monobasic potassium phosphate, 1.2 mM magnesium sulfate, 1.3 mM calcium gluconate and 5.6 mM glucose. URAT1 inhibitors were serially diluted into assay buffer and added to the cells for 5 minutes prior to addition of substrate. URAT1-expressing cells were incubated with 100 µM ^14C-uric acid for 10 minutes and OAT4-expressing cells were incubated with 20 µM carboxyfluorescein (Life Technologies, Inc.) for 5 minutes. Cells were then washed three times in 25 mM MES pH 5.5/125 mM sodium gluconate, and solubilized in Ultima Gold (Perkin Elmer) prior to liquid scintillation counting. Each treatment was measured in triplicate.

human URAT1 = biological target: T2, human URAT1 (Homo sapiens, UniProt Q96S37); assay: URAT1 activity assay (14C-uric acid transport), human URAT1; assay type: cell-based; parameters: host or cells: HEK-293T
T2 sequence (Q96S37 1-553): T1 sequence (Q96S37 1-553 F241Y) with Y241F
Experimental: as §1, §2

CC(C)(Sc1ccncc1-c1ccc(C#N)c2ccccc12)C(=O)O [Verinurad, 2-((3-(4-cyanonaphthalen-1-yl)pyrindin-4-yl)thio)-2-methylpropanoic acid]
fold reduced affinity compared to human URAT1 (human URAT1 h-F241Y; h-F241Y): 5 fold
IC50 (human URAT1 h-F241Y; h-F241Y binding site point mutant): 120 nM
fold potency for URAT1 compared to other transporters (human URAT1; URAT1 vs other transporters): greater than 100 fold
IC50 (human URAT1; human URAT1 wild type in HEK-293T, 100 µM 14C-uric acid, pH 5.5, read-out: IC50, inhibition of transport activity): 25 ± 3.6 nM
IC50 (human URAT1; human URAT1 wild type, read-out: IC50, inhibition of transport activity of human URAT1): 25 nM
